Tests used:
[1] = tested on: HEC1A, rat1 and ras-transformed rat1 cells; test: In vitro toxicity: MTT and trypan blue staining; format: cell-based; details: human (HEC1A), rat (rat1, ras-transformed rat1), 50 μM
Text: Cells were counted following 3, 7 and 10 days of beginning of treatments with drugs. For counting, cells were detached from plates with trypsin/EDTA, and collected by a low speed spin in the presence of DMEM/10% FCS. The pelleted cells were resuspended in a small volume of DMEM/10% FCS and counted under the microscope. Viability of cells was estimated by staining with (3-(4,5-dimethylthiosol-2-yl)-2,5-diphenyltetrazolium bromide (MTT) and microscopic examination of the stained and unstained cells, or spectrophotometric estimation (OD490, 590) of the total stain in each well. Non viable cells were estimated by the trypan blue exclusion method.
In order to determine the long term effects of both FTA and FTS on cell survival, a colorometric method using MTT, which stains only live cells, was employed (Mosmen, F. J. Immunol. Meth., 65, 55-63 (1983), and tryptan blue exclusion staining in which only dead cells are stained, were employed. Cells were incubated with 50 μM of either FTA or FTS for a period of up to 5 days in culture. This concentration is 10-30 times the Ki values of FTS and FTA as calculated above. As control served cells incubated in 0.1% DMSO with no drug.

in vivo = details: Bulb-C, mouse, in vivo, ip
Procedure: (§1) Seven groups of five mice were used. The mice received a single i.p. dose of FTS in DMSO or the solvent only. Doses used in this experiment ranged from 0.5 mg/kg to 268 mg/kg.

Bulb-C mice = test: in vivo
Procedure: as §1

[2] = tested on: Ha-ras-transformed rat1 cells; test: Transformed phenotype (multi-layered clumps) of ras-transformed rat1 cells; format: cell-based, rat; details: 5 days
Text: The two compounds had no effect on the morphology of the non-transformed cells. (FIG. 9B and 9C).

[3] = tested on: V-raf transformed 3T3 cells; test: Growth of V-raf transformed cells; format: cell-based; details: 25 μM
Text: The cell lines employed were rat1, -EJ, which are rat1 cells stably expressing Val- 12 activated human Ha-ras gene (Land H. et al., Nature, 304, 596-602, (1983)); V-raf-3T3, which are 3T3 cells stably expressing the V-raf gene (Xu, N., et al., Proc. Natl. Acad. Sci., 90, 6741-6745); RB-22, which are 3T3 cells stably expressing the rat Erb-B2 gene (Peles, et al., EMBO J., 10, 2077-2086 (1991)) CO6O cells (SV40-CHO), which are CHE cells stably expressing the SV-40 T-antigen gene (Lavi, Proc. Natl. Acad. Sci., 78, 6144-6148 (1981)); human endometrial carcinoma cell line HEC1A, which are cells that express activated K-ras (Enomoto T., Cancer Res., 50, 6139-6145; mouse B16F10 melanoma cells, rat pheochromocytoma PC12 cells, […] cells CHE and COS cells.
HEC1A, V-raf-3T3 and SV40-CHE cells were grown in Dulbecco's modified Eagle medium (DMEM) containing 10% fetal calf serum (FCS), 4 mM L-glutamine, 10 μg/ml streptomycin and 10 U/ml penicillin. Rat1 and -EJ cells were grown in the same medium except that it was supplemented with 12.5 U/ml nyostatin. RB-22 cells were grown in modified DMEM (1 mM sodium pyruvate, 20 mM sodium bicarbonate)/10% FCS containing 4 mM L-glutamine, […] streptomycin, 10 U/ml penicillin. […]
The potent PPMTase inhibitor FTS was used to examine selectivity of the drugs towards ras-dependent growth-signaling pathways. […] Cells were counted on day 5 of the experiment.

[4] = tested on: Ha-ras transformed rat1 (EJ) cells; test: Tumor growth in nude mice implanted with Ha-ras-transformed rat1 cells; format: in vivo, nude mice (CD1-Nu)
Procedure: Male nude mice (CD1—Nu) were obtained from the Weizmann Institute of Science, Rehovot, Israel. Groups of 5 to 8 mice (3-4 weeks old, 25±2 gr body weight) were used in each experiment for both; controls and FTS treatment. Cells (Ha-ras transformed rat1 (EJ) cells, 2×10^6 cells in 100 μl PBS) were injected systematically (s.c.). Cell implantation and drug administration began on the same day. The EJ cells were prepared from confluent cultures. Cells were detached with trypsin/EDTA, washed with DMEM/10% FCS followed by 3 times PBS washes. A suspension of 2×10^7 cells/ml was prepared and used for experiment within 15-30 min. of preparation.
FTS was prepared as a stock solution (0.225M) in ethanol. It was diluted just prior to the drug administration with PBS to yield a solution of 1.35 mM FTS, 0.6% ethanol. Under these conditions FTS remained in solution for the period of time required for administration.
Experimental mice received 100 μl of the FTS solution, respectively, daily or every other day. Controls received the appropriate administration of 0.6% ethanol in PBS. Tumor growth was monitored by daily observations and by size measurement using a millimetric caliper (two dimensions of the tumor size were taken usually twice a week).
Data were expressed in terms of tumor size (cm^2) in each mouse as a function of time.
Ha-ras transformed rat1 cells (2×10^6) were implanted beneath the skin of the right hind leg of nude mice. The mice received a systemic s.c. injection of either the solvent (0.6% ethanol in PBS) or FTS, starting on the day of cell implantations. Two sets of experiments were performed. In the one set the mice received 3.6 mg/kg FTS daily. Tumors sizes measured every 3-4 days beginning on day 10 of the experiment. […] Out of the 8 control mice, 6 developed tumors having a size of 4 cm^2 or greater and 2 developed tumors of 2 cm^2 or less. In another set of experiments mice received 1.6 mg/kg FTS every other day.

Which “cells stained with trypan blue (dead)” value [1] does the source give for CC(C)=CCC/C(C)=C/CC/C(C)=C/CSc1ccccc1C(=O)O [FTS, (3,7,11-trimethyl-dodeca-2,6,10-trienyl)-2-thiobenzoic acid] here?
Its value is “less than 5%”.

What about the LD50 at 3 weeks (in vivo) of the same compound?
The LD50 at 3 weeks was over 100 mg/kg.

And the “Number of live mice (3 weeks following injection)” value (“Number of live mice” for short) (Bulb-C mice; 0.5 mg/kg single i.p.)?
Its value is 5/5.

And the “Number of live mice” value (Bulb-C mice; 5.0 mg/kg single i.p.)?
The value was 5/5.

What about the “Number of live mice” value (Bulb-C mice; 10.0 mg/kg single i.p.) of the same compound?
Its value is 5/5.

What about the survival (Bulb-C mice; 50 mg/kg or lower single i.p.) of the same compound?
The survival was “all mice survived”.

What about the “Number of live mice” value (Bulb-C mice; 50.0 mg/kg single i.p.) of the same compound?
The value was 5/5.

And the “mice out of 5 died” value (Bulb-C mice; 134 mg/kg single i.p.)?
The value was 2.

And the “Number of live mice” value (Bulb-C mice; 134.0 mg/kg single i.p.)?
The value was 3/5.

And the “Number of live mice” value (Bulb-C mice; 268.0 mg/kg single i.p.)?
Its value is 0/5.

And the mortality (Bulb-C mice; highest dose (268 mg/kg) single i.p.)?
Its mortality is “all mice died”.

What about the “effect on transformed phenotype” value ([2]; 5 μM, FIG. 9E) of the same compound?
The value was “reversed the transformed phenotype”.

And the “effect on transformed phenotype” value ([2]; 10 μM, FIG. 9F)?
The value was “reversed the transformed phenotype”.

And the “effect on growth of V-raf transformed cells” value [3]?
The value was “no effects”.

What about the “Number of cells (% of control)” value ([3]; Y-ref transformed 3T2, day 5) of the same compound?
The value was 93 ± 8 % of control.

And the “effect on tumor growth” value ([4]; 1.6 mg/kg every other day, FIG. 13)?
Its value is “inhibitory effects”.

And the “mice out of 8 that developed tumors of 2 cm2 or less” value ([4]; 3.6 mg/kg daily, systemic s.c.)?
The value was 6.

And the “mice out of 8 that developed tumors of greater than 4 cm2” value ([4]; 3.6 mg/kg daily, systemic s.c.)?
Its value is 2.

What about the “effect on tumor growth” value ([4]; 3.6 mg/kg daily, systemic s.c., FIG. 12) of the same compound?
Its value is “profound inhibition of tumor growth”.
